Patent US20180014536A1, “AGENT FOR IMPROVING PLANT GROWTH AND METHOD FOR PRODUCING PLANT USING SAME” (FUSO CHEMICAL CO., LTD., priority 2015, published 2018)
Where “and” joins values, the source holds several entries; their conditions need not be identical. Equal values may be shown once. Entries after “also recorded” stand apart in the source; their conditions may differ.

Tests used:
Japanese mustard spinach [1] = test: Verification experiment 2: high temperature and low sunshine stress, hydroponics (second time-B)
Japanese mustard spinach [2] = test: Verification experiment 1: high temperature stress, hydroponics (first time); format: in vivo; settings: for effect as agent compared with zerumbone: high temperature stress, hydroponics
Description: In order to confirm that the above substances have an efficacy such as alleviation of the various stresses on a plant or promotion of plant growth, some verification experiments were conducted. In each of the verification experiments, solutions of the above substances were used. A concentration thereof was in a range from 0.01 ppm to 10 ppm, in order to exert a sufficient efficacy on a plant. This concentration was appropriately adjusted for each verification experiment. For comparison, similar verification experiments using sanguinarine were conducted. In such a verification experiment for an identical purpose to the above, a concentration of sanguinarine was set to be identical to those of the above substances. A verification experiment for high temperature stress was conducted by use of Japanese mustard spinach. The experiment was conducted in the following procedures. […] Note that the agent used was zerumbone.

Japanese mustard spinach [3] = test: Verification experiment 2: high temperature stress, hydroponics, plenty of sunlight (second time-A)
cucumber [4] = test: Verification experiment 8: low temperature stress, TTC test; format: in vivo; settings: for TTC test dyeing of leaves (cell activity): remaining plants cultivated two days under fluorescent lamp at 4° C.
leaf lettuce = test: Verification experiment 13: hydroponics test on leaf lettuce in vinyl greenhouse in summer; format: in vivo
autumn fern [5] = test: Verification experiment 15: organic acid stress, Pteridophyta, TTC test; format: in vivo; settings: cut leaves immersed in 0.4% acetic acid solution for three hours
racomitrium moss [6] = test: Verification experiment 19: ammonia stress, Bryophyta, TTC test; format: in vivo; settings: samples immersed in 1.0% ammonia solution for 48 hours
cucumber [7] = test: Verification experiment 12: salt stress, TTC test; format: in vivo; settings: cut leaves immersed in 1.0% saline water for 24 hours
racomitrium moss [8] = test: Verification experiment 18: organic acid stress, Bryophyta, TTC test; format: in vivo; settings: samples immersed in 0.4% acetic acid solution for three hours
cucumber [9] = test: Verification experiment 6: dry stress; format: in vivo; settings: for Weight of each seedling: 3 ml agent added immediately after germination, 18 days cultivation, soil surface kept dry, samples No. 1-9; for Average: average seedling weight after 18 days dry stress; for Weight comparison (%): control = 100.0
Description: By use of cucumber, a resistance to dry stress was investigated. 3 ml of Zerumbone was added to cucumber seedlings immediately after germination. The cucumber seedlings were cultivated for 18 days. Meanwhile, another cucumber seedlings were cultivated for 18 days without Zerumbone added thereto. Throughout the cultivation period, a minimum amount of water was given and watering was conducted a minimum number of times so that the soil surface was always kept dry. […] A weight of each of the seedlings was measured. […] Note that, except for the agent, the cultivation conditions used were identical to those of the case where zerumbone was used.

autumn fern [10] = test: Verification experiment 16: ammonia stress, Pteridophyta, TTC test; format: in vivo; settings: cut leaves immersed in 1.0% ammonia solution for 48 hours
cucumber [11] = test: Verification experiment 11: ultraviolet ray stress, TTC test; format: in vivo; settings: cut leaves irradiated with ultraviolet ray for 24 hours
autumn fern [12] = test: Verification experiment 14: high temperature stress, Pteridophyta, TTC test; format: in vivo; settings: cut leaves immersed in tap water of 45° C. for 18 hours
Description: As a Pteridophyta, autumn fern was used, which is a representative Pteridophyta often found in, […] bright forest. Verification experiments for various stresses were conducted thereon. The experiments were conducted in the following procedures. […] Meanwhile, the leaf surfaces of the control sample were sprayed only with water. After the spraying onto the leaf surfaces, the autumn fern seedlings were cultivated at 25° C. for one day. The leaves were cut in a suitable size, and were then subjected to various stresses. Then, cell activities of the samples were determined by TTC test. The leaves that were cut in the suitable size were immersed in tap water of 45° C. for 18 hours. On such leaves, TTC test was conducted.

cucumber [13] = test: Verification experiment 10: ammonia stress, TTC test; format: in vivo; settings: cut leaves immersed in 1.0% ammonia solution for three hours
racomitrium moss [14] = test: Verification experiment 17: high temperature stress, Bryophyta, TTC test; format: in vivo; settings: samples immersed in tap water of 45° C. for 18 hours
Description: As a Bryophyta, racomitrium moss was used, which is a Bryophyta widely used for greening a park, a rooftop, and a garden. Verification experiments for various stresses were conducted thereon. The experiments were conducted in the following procedures. […] Meanwhile, the control sample was sprayed only with water. After the spraying, the racomitrium mosses were cultivated at 25° C. for one day. Then, the samples were subjected to various stresses. Thus, cell activities of the samples were determined by TTC test. […] On such samples, TTC test was conducted.

cucumber [15] = test: Verification experiment 9: organic acid stress, TTC test; format: in vivo; settings: cut leaves immersed in 0.4% acetic acid solution for two hours
[16] = cut leaves left two days in dark place at 0° C.
[17] = cut leaves left two days in dark place at −10° C.
[18] = leaf lettuce, summer greenhouse hydroponics

SMILES: C[n+]1cc2c3c(ccc2c2ccc4cc5c(cc4c21)OCO5)OCO3 [Sanguinarine, sanguinarine, reference compound]
- growth better than the growth of the control samples (Japanese mustard spinach [1]; Table 3 experiment, almost no sunlight): approximately 17%
- Growth ratio (%) (Japanese mustard spinach [1]; control = 100.0, second time-B): 116.7%
- Weight of 10 samples (Japanese mustard spinach [1]; dry weight of 10 seedlings, nine days, 30-43 °C, almost no sunlight, second time-B): 1.802 g and 1.873 g
- Average (Japanese mustard spinach [1]; second time-B): 1.838 g
- Average (Japanese mustard spinach [2]; average weight of 10 samples, first time): 1.574 g
- weights greater than those of the control samples (Japanese mustard spinach [2]; average weights compared, first time): approximately 3%
- Growth ratio (%) (Japanese mustard spinach [2]; control = 100.0, first time): 103.2%
- Weight of 10 samples (Japanese mustard spinach [2]; dry weight of 10 seedlings, leaf spray, nine days culture, maximum temperature 30-43 °C, plenty of sunlight, first time): 1.554 g and 1.538 g and 1.594 g and 1.610 g
- weights greater than those of the control samples (Japanese mustard spinach [3]; Table 2 experiment): approximately 11%
- Growth ratio (%) (Japanese mustard spinach [3]; control = 100.0, second time-A): 110.7%
- Weight of 10 samples (Japanese mustard spinach [3]; dry weight of 10 seedlings, nine days, 30-43 °C, plenty of sunlight, second time-A): 1.996 g and 2.027 g and 2.156 g and 2.179 g
- Average (Japanese mustard spinach [3]; second time-A): 2.090 g

SMILES: C/C1=C\CC/C(C)=C/CC(C)(C)/C=C/C1 [α-humulene]
- TTC test dyeing (cell activity) (cucumber [4]; [16]): dyed deeply
- TTC test dyeing (cell activity) (cucumber [4]; [17]): dyed slightly
- TTC test dyeing of leaves (cell activity) (cucumber [4]): dyed deeply except for their peripheries
- Disease resistance: Powdery mildew (leaf lettuce; in vivo): Not occurred
- Disease resistance: Root rot (leaf lettuce; in vivo): Not occurred
- Physiological disorder (quality): Heterophyll (leaf lettuce; in vivo): Not occurred
- Physiological disorder (quality): Root spread condition (leaf lettuce; in vivo): far better than in the sanguinarine test section; also recorded: Generally
- Physiological disorder (quality): Taste (leaf lettuce; in vivo): No bitterness
- Physiological disorder (quality): Tip burn (dead fringes of leaf) (leaf lettuce; in vivo): Not occurred
- Physiological disorder (quality): Unproductive growth (leaf lettuce; in vivo): Not occurred
- occurrence of a disease (overall) (leaf lettuce; in vivo): occurrence of a disease was not observed
- physiological disorder (overall) (leaf lettuce; in vivo): no physiological disorder occurred
- TTC test dyeing (cell activity) (autumn fern [5]): dyed slightly
- TTC test dyeing (cell activity) (racomitrium moss [6]): dyed slightly
- cells alive (TTC test) (cucumber [7]): most of the cells
- effect as agent compared with zerumbone (Japanese mustard spinach [2]): effects almost similar to that of zerumbone
- TTC test dyeing (cell activity) (racomitrium moss [8]): dyed slightly
- Weight of each seedling (cucumber [9]): 2.69 g and 2.99 g and 3.21 g and 3.07 g and 3.02 g and 2.76 g and 2.65 g and 3.03 g
- Average (cucumber [9]): 2.90 g
- Weight comparison (%) (cucumber [9]): 108.5%
- TTC test dyeing (cell activity) (autumn fern [10]): dyed slightly
- cells having an activity (TTC test) (cucumber [11]): approximately half of the cells
- TTC test dyeing (cell activity) (autumn fern [12]): dyed slightly
- cells having an activity (TTC test) (cucumber [13]): a part of the cells
- TTC test dyeing (cell activity) (racomitrium moss [14]): dyed slightly
- cells having an activity (TTC test) (cucumber [15]): approximately half of the cells

SMILES: C=C1CC/C=C(\C)CC[C@@H]2[C@@H]1CC2(C)C [β-caryophyllene]
- TTC test dyeing (cell activity) (cucumber [4]; [16]): dyed deeply
- TTC test dyeing (cell activity) (cucumber [4]; [17]): dyed slightly
- TTC test dyeing of leaves (cell activity) (cucumber [4]): dyed deeply except for their peripheries
- Growing speed: Harvest timing (leaf lettuce; day on which harvest size reached 150 g to 180 g): 33rd day after day after germination
- Disease resistance: Powdery mildew (leaf lettuce; [18]): Not occurred
- Disease resistance: Root rot (leaf lettuce; [18]): Not occurred
- Physiological disorder (quality): Heterophyll (leaf lettuce; [18]): Not occurred
- Physiological disorder (quality): Root spread condition (leaf lettuce; [18]): far better than in the sanguinarine test section; also recorded: Very good
- Physiological disorder (quality): Taste (leaf lettuce; [18]): No bitterness
- Physiological disorder (quality): Tip burn (dead fringes of leaf) (leaf lettuce; [18]): Not occurred
- Physiological disorder (quality): Unproductive growth (leaf lettuce; [18]): Not occurred
- occurrence of a disease (overall) (leaf lettuce; [18]): occurrence of a disease was not observed
- physiological disorder (overall) (leaf lettuce; [18]): no physiological disorder occurred
- TTC test dyeing (cell activity) (autumn fern [5]): dyed slightly
- TTC test dyeing (cell activity) (racomitrium moss [6]): dyed slightly
- cells alive (TTC test) (cucumber [7]): most of the cells
- effect as agent compared with zerumbone (Japanese mustard spinach [2]): effects almost similar to that of zerumbone
- TTC test dyeing (cell activity) (racomitrium moss [8]): dyed slightly
- Weight of each seedling (cucumber [9]): 2.89 g and 3.15 g and 3.01 g and 3.13 g and 2.91 g and 3.53 g and 3.11 g and 3.02 g
- Average (cucumber [9]): 3.10 g
- Weight comparison (%) (cucumber [9]): 108.8%
- TTC test dyeing (cell activity) (autumn fern [10]): dyed slightly
- cells having an activity (TTC test) (cucumber [11]): approximately half of the cells
- TTC test dyeing (cell activity) (autumn fern [12]): dyed slightly
- cells having an activity (TTC test) (cucumber [13]): a part of the cells
- TTC test dyeing (cell activity) (racomitrium moss [14]): dyed slightly
- cells having an activity (TTC test) (cucumber [15]): approximately half of the cells
